ChEMBL document CHEMBL1201862, “PubChem BioAssay data set” (2004)
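Assay format: 96-well plates, 48-hour exposure. GI50 is the concentration that inhibits growth by half.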 Activity calls are given as the source filed them. Rule as the data show it: active = GI50 up to about 1.1 µM and inactive = higher.

Tests used:
Test in all cases: NCI anticancer screen, dose series, 48 h
T47D = test system: T47D
NCI/ADR-RES = test system: NCI/ADR-RES
Malme-3M = test system: Malme-3M
SR = test system: SR
U-251 = test system: U-251
786-0 = test system: 786-0
SF-539 = test system: SF-539
DU-145 = test system: DU-145
UO-31 = test system: UO-31
HCT-15 = test system: HCT-15
HT-29 = test system: HT-29
MDA-MB-231 = test system: MDA-MB-231
SF-268 = test system: SF-268
NCI-H226 = test system: NCI-H226
SN12C = test system: SN12C
A549 = test system: A549
MCF7 = test system: MCF7
PC-3 = test system: PC-3
CAKI-1 = test system: CAKI-1
SNB-75 = test system: SNB-75

| SMILES | GI50 (T47D) | GI50 (NCI/ADR-RES) | GI50 (Malme-3M) | GI50 (SR) | GI50 (U-251) | GI50 (786-0) | GI50 (SF-539) | GI50 (DU-145) | GI50 (UO-31) | GI50 (HCT-15) [µM] | GI50 (HT-29) | GI50 (MDA-MB-231) | GI50 (SF-268) | GI50 (NCI-H226) | GI50 (SN12C) | GI50 (A549) | GI50 (MCF7) | GI50 (PC-3) | GI50 (CAKI-1) | GI50 (SNB-75) |
| --- | --- | --- | --- | --- | --- | --- | --- | --- | --- | --- | --- | --- | --- | --- | --- | --- | --- | --- | --- | --- |
| C#C[C@@]1(O)CCCC2=CC3(CC[C@]21C)SCCS3 | > 100 µM (inactive) | > 100 µM (inactive) | > 100 µM (inactive) | > 100 µM (inactive) | > 100 µM (inactive) | > 100 µM (inactive) | > 100 µM (inactive) | > 100 µM (inactive) | > 100 µM (inactive) | > 100 | > 100 µM (inactive) | > 100 µM (inactive) | > 100 µM (inactive) | > 100 µM (inactive) | > 100 µM (inactive) | > 100 µM (inactive) | > 100 µM (inactive) | > 100 µM (inactive) | – | – |
| CCC1(CC)C(=O)NN(C(=O)c2ccccc2)C1=O | > 100 µM (inactive) | > 100 µM (inactive) | > 100 µM (inactive) | > 100 µM (inactive) | > 100 µM (inactive) | > 100 µM (inactive) | – | > 100 µM (inactive) | > 100 µM (inactive) | > 100 | > 100 µM (inactive) | > 100 µM (inactive) | > 100 µM (inactive) | > 100 µM (inactive) | > 100 µM (inactive) | > 100 µM (inactive) | > 100 µM (inactive) | > 100 µM (inactive) | > 100 µM (inactive) | 49.4 µM (inactive) |
| O=c1[nH]c2cc3cccnc3c(Cl)c2nc1CBr | 5.89 µM (inactive) | 20 µM (inactive) | 23.1 µM (inactive) | 6.18 µM (inactive) | 15.4 µM (inactive) | 6.49 µM (inactive) | 11.2 µM (inactive) | 15.6 µM (inactive) | 10.5 µM (inactive) | 3.08 | 19.5 µM (inactive) | 15.9 µM (inactive) | 22.2 µM (inactive) | 19.1 µM (inactive) | 14 µM (inactive) | 19.3 µM (inactive) | 10.1 µM (inactive) | 15.7 µM (inactive) | 15.1 µM (inactive) | – |
| C=C(C1=CC(=O)C(C)(C)O1)[C@@H]1CC=C([C@@H]2CC[C@H]3[C@@]2(C)CC[C@H]2C(C)(C)C(=O)[C@H](O)C[C@]32C)[C@H](O)O1 | 1.44 µM (inactive) | 3.98 µM (inactive) | 2.35 µM (inactive) | – | 1.62 µM (inactive) | 0.273 µM (active) | 1.34 µM (inactive) | 1.03 µM (active) | 1.53 µM (inactive) | 2.04 | 1.87 µM (inactive) | 2.15 µM (inactive) | 1.88 µM (inactive) | 17.5 µM (inactive) | 1.98 µM (inactive) | 13.6 µM (inactive) | 0.546 µM (active) | 1.31 µM (inactive) | 3.89 µM (inactive) | 10.6 µM (inactive) |
| O=C1Cc2c([nH]c3ccc(C(=O)O)cc23)-c2ccccc2N1 | > 100 µM (inactive) | > 100 µM (inactive) | > 100 µM (inactive) | > 100 µM (inactive) | > 100 µM (inactive) | > 100 µM (inactive) | > 100 µM (inactive) | > 100 µM (inactive) | > 100 µM (inactive) | > 100 | 84.9 µM (inactive) | > 100 µM (inactive) | > 100 µM (inactive) | > 100 µM (inactive) | > 100 µM (inactive) | > 100 µM (inactive) | > 100 µM (inactive) | > 100 µM (inactive) | > 100 µM (inactive) | – |
| COC1=CC23CCCN2CCc2cc4c(cc2C3C1O)OCO4 (stereo unspecified) | 92.5 µM (inactive) | > 100 µM (inactive) | 43 µM (inactive) | – | > 100 µM (inactive) | 44.9 µM (inactive) | 40.6 µM (inactive) | 43 µM (inactive) | 48 µM (inactive) | 41.8 | 39.4 µM (inactive) | > 100 µM (inactive) | 50.2 µM (inactive) | > 100 µM (inactive) | 57.5 µM (inactive) | 36.4 µM (inactive) | 48.5 µM (inactive) | 59.3 µM (inactive) | 31.4 µM (inactive) | 78.2 µM (inactive) |
| N#Cc1c(-c2ccc(Cl)cc2Cl)nc2[nH]nc(S)n2c1=O | > 100 µM (inactive) | > 100 µM (inactive) | > 100 µM (inactive) | > 100 µM (inactive) | > 100 µM (inactive) | > 100 µM (inactive) | – | > 100 µM (inactive) | > 100 µM (inactive) | > 100 | > 100 µM (inactive) | > 100 µM (inactive) | > 100 µM (inactive) | > 100 µM (inactive) | > 100 µM (inactive) | > 100 µM (inactive) | > 100 µM (inactive) | > 100 µM (inactive) | > 100 µM (inactive) | – |
| Clc1cc(-c2ccccc2)nc2ccccc12 | 31.3 µM (inactive) | 33.6 µM (inactive) | 38 µM (inactive) | – | 35.4 µM (inactive) | 39.5 µM (inactive) | 51.4 µM (inactive) | 40.6 µM (inactive) | 32.9 µM (inactive) | 16 | 32.1 µM (inactive) | 35.4 µM (inactive) | 44.9 µM (inactive) | 28.4 µM (inactive) | 41.1 µM (inactive) | 35.6 µM (inactive) | 23.7 µM (inactive) | 24.8 µM (inactive) | 33.9 µM (inactive) | 28.6 µM (inactive) |
| C=C(C)CCN(C(=O)OC(C)(C)C)c1cc(C(C)C)co1 | 24.8 µM (inactive) | 24.2 µM (inactive) | – | 33.5 µM (inactive) | 26.7 µM (inactive) | > 100 µM (inactive) | > 100 µM (inactive) | 45 µM (inactive) | > 100 µM (inactive) | > 100 | 45.3 µM (inactive) | > 100 µM (inactive) | 0.344 µM (active) | 57.7 µM (inactive) | > 100 µM (inactive) | 48.4 µM (inactive) | 40.4 µM (inactive) | 22.4 µM (inactive) | > 100 µM (inactive) | – |
| O=C1Nc2cccc(Cl)c2/C1=C\c1c(Cl)nc2n1CCS2 | 48.3 µM (inactive) | > 100 µM (inactive) | > 100 µM (inactive) | > 100 µM (inactive) | > 100 µM (inactive) | > 100 µM (inactive) | 89.1 µM (inactive) | > 100 µM (inactive) | > 100 µM (inactive) | 96.6 | > 100 µM (inactive) | > 100 µM (inactive) | > 100 µM (inactive) | – | > 100 µM (inactive) | > 100 µM (inactive) | 8.43 µM (inactive) | > 100 µM (inactive) | > 100 µM (inactive) | > 100 µM (inactive) |
| COc1cc2c(cc1C)NC(=O)/C2=C/c1c(Cl)[nH]c2ccccc12 | 5.61 µM (inactive) | 2.62 µM (inactive) | 3.88 µM (inactive) | 3.55 µM (inactive) | 4.69 µM (inactive) | 6.21 µM (inactive) | 1.3 µM (inactive) | 13.3 µM (inactive) | 10.3 µM (inactive) | 3.38 | 3.94 µM (inactive) | 3.95 µM (inactive) | 4.22 µM (inactive) | – | 5.3 µM (inactive) | 6.05 µM (inactive) | 3.8 µM (inactive) | 5.21 µM (inactive) | 7.71 µM (inactive) | 7.87 µM (inactive) |
